Experiments:
[1] = tested on: Kasumi-1 (c-Kit N822K mutant type); assay: In vitro growth inhibition (GI50), Kasumi-1; type: cell-based; conditions: Homo sapiens, Cell lines of leukemia, read-out: GI 50 Kasumi-1 Kit (N822K)
Summary of the method: (§1)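 After 3–5 days of treatment (top concentration 5,000 nM, serially diluted 2- or 10-fold to 0.01 nM, solvent ≤1%), viability was read by CCK8 at OD450. Growth rate was normalised to the time-zero and solvent-control wells, and GI50 was derived from the curve. Cultures in RPMI1640 + 10% FBS.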

RS4; 11 (FLT3 wild type) = assay: In vitro growth inhibition (GI50), RS4; 11; type: cell-based, human; conditions: Homo sapiens, RS4-11; Cell lines of leukemia; read-out: GI 50 RS4: 11 FLT3 (WT)
[2] = tested on: OCI-AML3 (NPMc+ mutant type); assay: In vitro growth inhibition (GI50), OCI-AML3; type: cell-based; conditions: Homo sapiens, OCI-AML-3; Cell lines of leukemia; read-out: GI 50 OCI- AML3 NPMc+
U937 (FLT3 wild-type) = assay: In vitro growth inhibition (GI50), U937; type: cell-based; conditions: Homo sapiens, U-937; Cell lines of leukemia; read-out: GI 50 U937 FLT 3(WT)
[3] = tested on: MOLM-13 (FLT3 ITD+/− mutant type); assay: In vitro growth inhibition (GI50), MOLM-13; type: cell-based, human; conditions: Homo sapiens, MOLM-13; Cell lines of leukemia; read-out: GI 50 MOLM-13 FLT3 (ITD+/−)
[4] = tested on: MV4-11 (FLT3 ITD+/+ mutant type); assay: In vitro growth inhibition (GI50), MV4-11; type: cell-based, human; conditions: Homo sapiens, MV4-11; Cell lines of leukemia; read-out: GI 50 MV4-11 FLT3 (ITD +/+)
[5] = tested on: K562 (FLT3 negative expression, positive expression of BCR-ABL fusion protein); assay: In vitro growth inhibition (GI50), K562; type: cell-based; conditions: Homo sapiens, Cell lines of leukemia, read-out: GI 50 K562 BCR-ABL
[6] = tested on: KG-1 (expressing FGFR1OP2-FGFR1 fusion protein); assay: In vitro growth inhibition (GI50), KG-1; type: cell-based; conditions: Homo sapiens; Cell lines of leukemia; read-out: GI 50 KG-1 FGFR1OP 2-FGFR1
[7] = tested on: RAMOS (positive expression of Brutons tyrosine protein kinase); assay: In vitro growth inhibition (GI50), RAMOS; type: cell-based; conditions: Homo sapiens, Cell lines of leukemia, read-out: GI 50 Ramos BTK
HL-60 (FLT3 wild type) = assay: In vitro growth inhibition (GI50), HL-60; type: cell-based; conditions: Homo sapiens, Cell lines of leukemia, read-out: GI 50 HL60 FLT3 (WT)
Summary of the method: as §1

Row | GI50 (RS4; 11 (FLT3 wild type)) | GI50 [2] | GI50 (U937 (FLT3 wild-type)) | GI50 [3] | GI50 [4] | GI50 [5] | GI50 [7] | GI50 (HL-60 (FLT3 wild type)) | Compound | GI50 [1] | GI50 [6]
1 | > 1000 nM | > 1000 nM | > 1000 nM | 10 to 100 nM | 10 to 100 nM | > 1000 nM | > 1000 nM | > 1000 nM | COc1ccc(-n2nc(C(C)(C)C)cc2NC(=O)Nc2ccc(-n3cnc4ccccc43)cc2)cc1 [Compound 106, 1-(4-benzimidazol-1-yl-phenyl)-3-[5-tert-butyl-2-(4-methoxyl-phenyl)-2H-pyrazol-3-yl]-urea] | > 1000 nM | > 1000 nM
2 | > 1000 nM | 100 to 1000 nM | > 1000 nM | 1 to 10 nM | 1 to 10 nM | > 1000 nM | > 1000 nM | > 1000 nM | COCCOc1ccc2c(c1)ncn2-c1ccc(NC(=O)n2nc(C(C)(C)C)cc2N)cc1 [Compound 120, 5-amino-3-tert-butyl-pyrazol-1-carboxylic acid {4-[5-(2-methoxyl-ethoxyl)-benzimidazol-1-yl]-phenyl}-amide] | > 1000 nM | 100 to 1000 nM
3 | > 1000 nM | > 1000 nM | > 1000 nM | 0.1 to 1 nM | 0.1 to 1 nM | > 1000 nM | > 1000 nM | > 1000 nM | CC(C)(C)c1cc(NC(=O)Nc2ccc(-n3cnc4cc(OC(F)(F)F)ccc43)cc2)no1 [Compound 21, 1-(5-tert-butyl-isoxazol-3-yl)-3-[4-(5-trifluoromethoxy-benzimidazol-1-yl)-phenyl]-urea] | > 1000 nM | > 1000 nM
4 | 10 to 100 nM | > 1000 nM | 100 to 1000 nM | 0.1 to 1 nM | 0.1 to 1 nM | > 1000 nM | 100 to 1000 nM | > 1000 nM | CN1CCN(CCCOc2ccc3c(c2)ncn3-c2ccc(NC(=O)Nc3cc(C(C)(C)C)n[nH]3)cc2)CC1 [Compound 92, 1-(5-tert-butyl-2H-pyrazol-3-yl)-3-(4-{5-[3-(4-methyl-piperazin-1-yl)-propoxyl]-benzimidazol-1-yl}-phenyl)-urea] | > 1000 nM | > 1000 nM
5 | > 1000 nM | > 1000 nM | > 1000 nM | 10 to 100 nM | 10 to 100 nM | > 1000 nM | > 1000 nM | > 1000 nM | Cc1ccc(-n2nc(C(C)(C)C)cc2NC(=O)Nc2ccc(-n3cnc4ccccc43)cc2)cc1 [Compound 105, 1-(4-benzimidazol-1-yl-phenyl)-3-(5-tert-butyl-2-p-tolyl-2H-pyrazol-3-yl)-urea] | > 1000 nM | > 1000 nM
6 | > 1000 nM | > 1000 nM | > 1000 nM | 1 to 10 nM | 1 to 10 nM | > 1000 nM | > 1000 nM | > 1000 nM | CC(C)(C)c1cc(NC(=O)Nc2ccc(-n3cnc4ccccc43)cc2)on1 [Compound 133, 1-(4-benzimidazol-1-yl-phenyl)-3-(3-tert-butyl-isoxazol-5-yl)-urea] | > 1000 nM | > 1000 nM
7 | > 1000 nM | > 1000 nM | > 1000 nM | 0.1 to 1 nM | 0.1 to 1 nM | > 1000 nM | > 1000 nM | > 1000 nM | CN(C)CCOc1ccc2c(c1)ncn2-c1ccc(NC(=O)Nc2cc(C(C)(C)C)on2)cc1 [Compound 20, 1-(5-tert-butyl-isoxazol-3-yl)-3-{4-[5-(2-dimethylamino-ethoxyl)-benzimidazol-1-yl]-phenyl}-urea] | > 1000 nM | > 1000 nM
8 | > 1000 nM | > 1000 nM | > 1000 nM | 10 to 100 nM | 10 to 100 nM | > 1000 nM | > 1000 nM | > 1000 nM | CC(C)(C)c1cc(NC(=O)Nc2ccc(-n3cnc4ncccc43)cc2)no1 [Compound 56, 1-(5-tert-butyl-isoxazol-3-yl)-3-(4-imidazo[4,5-b]pyridin-1-yl-phenyl)-urea] | > 1000 nM | 100 to 1000 nM
9 | > 1000 nM | > 1000 nM | > 1000 nM | 0.1 to 1 nM | 0.1 to 1 nM | > 1000 nM | > 1000 nM | > 1000 nM | CCCCCCOc1ccc2c(c1)ncn2-c1ccc(NC(=O)Nc2cc(C(C)(C)C)n[nH]2)cc1 [Compound 73, 1-(5-tert-butyl-2H-pyrazol-3-yl)-3-[4-(5-hexyloxyl-benzimidazol-1-yl)-phenyl]-urea] | > 1000 nM | > 1000 nM
10 | > 1000 nM | > 1000 nM | > 1000 nM | 0.1 to 1 nM | 0.1 to 1 nM | > 1000 nM | > 1000 nM | > 1000 nM | COc1ccc2ncn(-c3ccc(NC(=O)Nc4cc(C(C)(C)C)on4)cc3)c2c1 [Compound 25, 1-(5-tert-butyl-isoxazol-3-yl)-3-[4-(6-methoxyl-benzimidazol-1-yl)-phenyl]-urea] | > 1000 nM | > 1000 nM
11 | > 1000 nM | > 1000 nM | > 1000 nM | 0.1 to 1 nM | 0.1 to 1 nM | > 1000 nM | > 1000 nM | > 1000 nM | CC(C)(C)c1cc(NC(=O)Nc2ccc(-n3cnc4ccccc43)cc2)no1 [Compound 3, 1-(4-benzimidazol-1-yl-phenyl)-3-(5-tert-butyl-isoxazol-3-yl)-urea] | > 1000 nM | > 1000 nM
12 | > 1000 nM | > 1000 nM | > 1000 nM | 1 to 10 nM | 1 to 10 nM | > 1000 nM | 100 to 1000 nM | 100 to 1000 nM | CC(C)(C)c1cc(NC(=O)Nc2ccc(-n3cnc4cc(OCCN5CCCCCC5)ccc43)cc2)no1 [Compound 18, 1-{4-[5-(2-azepan-1-yl-ethoxyl)-benzimidazol-1-yl]-phenyl}3-(5-tert-butyl-isoxazole-3-yl)-urea] | 100 to 1000 nM | 100 to 1000 nM
13 | > 1000 nM | > 1000 nM | > 1000 nM | 1 to 10 nM | 1 to 10 nM | > 1000 nM | > 1000 nM | > 1000 nM | CC(C)(C)c1nnc(NC(=O)Nc2ccc(-n3cnc4ccccc43)cc2)s1 [Compound 63, 1-(4-benzimidazol-1-yl-phenyl)-3-(5-tert-butyl-[1,3,4]thiadiazole-2-yl)-urea] | > 1000 nM | > 1000 nM
14 | 10 to 100 nM | > 1000 nM | > 1000 nM | 0.1 to 1 nM | 0.1 to 1 nM | 100 to 1000 nM | 100 to 1000 nM | 100 to 1000 nM | CN1CCN(CCCOc2ccc3c(c2)ncn3-c2ccc(NC(=O)Nc3cc(C(C)(C)C)on3)cc2)CC1 [Compound 19, 1-(5-tert-butyl-isoxazol-3-yl)-3-(4-{5-[3-(4-methyl-piperazin-1-yl)-propoxyl]-benzimidazol-1-yl}-phenyl)-urea] | 100 to 1000 nM | 100 to 1000 nM
15 | > 1000 nM | > 1000 nM | > 1000 nM | 1 to 10 nM | 1 to 10 nM | > 1000 nM | > 1000 nM | > 1000 nM | CC(C)(C)c1cc(NC(=O)Nc2ccc(-n3cnc4ccccc43)nc2)no1 [Compound 42, 1-(6-benzimidazol-1-yl-pyridin-3-yl)-3-(5-tert-butyl-isoxazol-3-yl)-urea] | > 1000 nM | > 1000 nM
16 | > 1000 nM | 100 to 1000 nM | > 1000 nM | 10 to 100 nM | 10 to 100 nM | > 1000 nM | > 1000 nM | > 1000 nM | CC(C)c1cc(NC(=O)Nc2ccc(-n3cnc4ccccc43)cc2)on1 [Compound 132, 1-(4-benzimidazol-1-yl-phenyl)-3-(3-isopropyl-isoxazol-5-yl)-urea] | > 1000 nM | > 1000 nM
17 | > 1000 nM | > 1000 nM | > 1000 nM | 100 to 1000 nM | 100 to 1000 nM | > 1000 nM | > 1000 nM | > 1000 nM | CC(C)(C)c1cc(NC(=O)Nc2ccc(-n3ccc4cccnc43)cc2)no1 [Compound 49, 1-(5-tert-butyl-isoxazol-3-yl)-3-(4-pyrrolo[2,3-b]pyridin-1-yl-phenyl)-urea] | > 1000 nM | > 1000 nM
